pIC50: −log10 of the molar value. Like-named read-outs stand apart in the source and are kept apart here.
Tests used:
[1] = test system: MDA-MB231-luc-D3H2LN cells; assay: Viability (MTS) assay on the cells in collagen under invasion assay conditions; format: cell-based, human; conditions: loss of viability at the concentration giving 0.5 × effect of 10 μM Y-27632, invasion assay conditions
Summary of the method: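 Run on cells embedded in collagen after a further 24 h, on serum-starved cells and in parallel on cells in 10% FBS. MTS reagent 3–4 h at 37 °C, absorbance at 490 nm; background-corrected signals expressed as % of untreated control.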

[2] = biological target: T1, hERG channel (Homo sapiens, UniProt Q12809); assay: hERG channel inhibition (electrophysiology, hERG-transfected HEK293 cells); format: cell-based; conditions: for % hERG inhibition in transfected HEK (n = 3) at 1 μM av: 1 μM compound; for % hERG inhibition in transfected HEK (n = 3) at 10 μM av: 10 μM compound
T1 construct: host or cells: HEK293
Procedure: Performed by Porsolt & Partners (Z. A. de Glatigné, 53940 Le Genest-Saint-Isle, France). Briefly, each 3 hERG-transfected HEK293 cells were superfused with the compounds at 1 and 10 μM, and the hERG channel current was measured by electrophysiology, as described by Crumb et al., J. Pharmacol. Exp. Ther. 2000.

[3] = test system: MDA-MB231-luc-D3H2LN cells; assay: Invasion of MDA-MB231-D3H2LN cells into collagen (example 15 = procedure 2, 48 h drug pre-incubation); format: cell-based; conditions: for IC50: concentration giving 50% of the anti-invasive effect of 10 μM Y-27632, 48 h pre-incubation, 24 h with 5% FBS, read-out: MDA: Inhib. of invasion: 0.5 × eff. of 10 μM Y-27632 at (μM) av
Summary of the method: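 Cells embedded at the bottom of collagen gels were pre-treated 48 h with compound in 0.025% FBS, then stimulated with 5% FBS for 24 h at 37° C. Nuclei were imaged at 0, 25 and 50 µm to give mean invasion distance, with MTS viability also measured. Value is the concentration giving 50% of the effect of 10 µM Y-27632.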

[4] = test system: human PBMC; assay: Toxicity assay under normal cell culture conditions (MTS), PBMC; format: cell-based; conditions: human PBMC, RPMI+10% FBS+IL-2, 72 h incubation, MTS
Summary of the method: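 Human PBMC (75000/well) in RPMI + 10% FBS + IL-2 were exposed to compounds for 72 h, with viability read by MTS. Concentration-response curves gave the concentration producing 50% toxicity.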

[5] = test system: MDA-MB231-luc-D3H2LN cells; assay: Toxicity assay under normal cell culture conditions (MTS), MDA cells; format: cell-based, human; conditions: MDA-MB231-luc-D3H2LN cells, MEM+10% FBS, 72 h incubation, MTS
Summary of the method: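 Under normal culture conditions (MEM with 10% FBS), MDA-MB231-luc-D3H2LN cells (2000/well) were exposed to compound concentration series for 72 h. Viability measured by MTS assay. Value is the concentration giving 50% toxicity.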

[6] = test system: MDA-MB231-luc-D3H2LN cells; assay: Invasion of MDA-MB231-D3H2LN cells into collagen (procedure 1, 24 h drug incubation); format: cell-based, human; conditions: for anti-invasive activity (in words): first set of experiments, procedure 1; for Invasion av.: number of cells per valid field at 50 μm, fold inhibitory effect compared to 10 μM Y-27632: procedure 1, first set of experiments
Procedure: It is to be noted that both Procedures 1 and 2 are invasion assays to test effect of drug compounds on invasion. They are both fully identical except for the time of incubation with the drug.
Here, invasion (into collagen) is the number of cells per valid field at 50 μm fold inhibitory effect compared to 10 μM Y-27632.
Standard Operating Procedure 1:
Said procedure is as described in example 15 except with respect to (i) the last step during day 1 “preparation of the invasion assay” and “treatment with the drugs” and days 2 and 3 which are detailed hereinafter and (ii) the fact that no concentration nor toxicity is determined at the end.
add each 33 μl/well of the 4× concentrated drug solutions in MEM+0.1% FBS to the corresponding wells in all three plates, according to the plate maps above
incubate 24 h at 37° C./5% CO2
The analysis as performed in day 5 in example 15 is performed exactly under the same conditions in day 3 in the framework of the present procedure 1.

T1 sequence (Q12809 whole entry): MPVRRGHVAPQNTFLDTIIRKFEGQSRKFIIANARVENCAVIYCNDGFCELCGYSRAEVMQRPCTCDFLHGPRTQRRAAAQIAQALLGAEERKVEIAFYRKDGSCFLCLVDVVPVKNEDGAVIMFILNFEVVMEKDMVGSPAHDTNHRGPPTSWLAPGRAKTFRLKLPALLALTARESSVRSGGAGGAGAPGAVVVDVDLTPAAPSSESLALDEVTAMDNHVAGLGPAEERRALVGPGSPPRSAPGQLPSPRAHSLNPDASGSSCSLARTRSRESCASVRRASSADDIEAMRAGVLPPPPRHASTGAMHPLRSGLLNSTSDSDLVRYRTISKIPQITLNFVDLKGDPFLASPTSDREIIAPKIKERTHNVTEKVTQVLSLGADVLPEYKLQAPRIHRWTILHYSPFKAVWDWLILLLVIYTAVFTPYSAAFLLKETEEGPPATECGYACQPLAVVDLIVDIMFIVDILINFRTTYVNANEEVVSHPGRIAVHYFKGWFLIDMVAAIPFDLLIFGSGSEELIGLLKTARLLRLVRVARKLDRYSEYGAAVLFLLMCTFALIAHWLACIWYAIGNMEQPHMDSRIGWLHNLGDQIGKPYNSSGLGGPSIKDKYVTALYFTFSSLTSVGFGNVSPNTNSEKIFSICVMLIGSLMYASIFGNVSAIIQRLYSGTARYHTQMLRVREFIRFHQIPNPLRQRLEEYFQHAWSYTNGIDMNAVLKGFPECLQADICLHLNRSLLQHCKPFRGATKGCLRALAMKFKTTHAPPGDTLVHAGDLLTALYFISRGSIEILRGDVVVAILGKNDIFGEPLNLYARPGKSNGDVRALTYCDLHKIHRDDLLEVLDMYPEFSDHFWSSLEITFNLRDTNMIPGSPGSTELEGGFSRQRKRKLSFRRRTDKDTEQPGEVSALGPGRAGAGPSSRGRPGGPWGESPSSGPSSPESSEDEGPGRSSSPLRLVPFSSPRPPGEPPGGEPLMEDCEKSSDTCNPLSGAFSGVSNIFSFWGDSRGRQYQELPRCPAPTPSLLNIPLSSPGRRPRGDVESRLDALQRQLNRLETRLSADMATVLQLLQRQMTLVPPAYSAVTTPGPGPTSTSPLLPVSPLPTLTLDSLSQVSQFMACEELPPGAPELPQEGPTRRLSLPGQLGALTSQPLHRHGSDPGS

SMILES | (+ MDA tox. under these cond.) % tox [1] [%] | % hERG inhibition in transfected HEK (n = 3) at 1 μM av [2] [%] | % hERG inhibition in transfected HEK (n = 3) at 10 μM av [2] [%] | IC50 [3] [µM] | PBMC tox.: 50% tox. at (μM) av [4] [µM] | MDA tox: 50% tox. at (μM) av [5] [µM] | pIC50 ([3]; Homo sapiens, procedure 2, second set of experiments, read-out: Invasion Av.: concentration of the compound necessary to reach 50% of the inhibition effect compared to 10 μM Y-27632) | anti-invasive activity (in words) ([3]; second set of experiments, procedure 2 (example 15)) | anti-invasive activity (in words) [6] | Invasion av.: number of cells per valid field at 50 μm, fold inhibitory effect compared to 10 μM Y-27632 [6]
CCN(CC)CCCNS(=O)(=O)c1cccc(Nc2cccc(C(=O)Nc3ccncc3)c2)c1 [Compound 5, 3-((3-(N-(3-(diethylamino)propyl)sulfamoyl)phenyl)amino)-N-(pyridin-4-yl)benzamide] | <10 | 1 | 29 | 1.31 | 74 | 68 | – | – | – | –
O=C(Nc1ccncc1)c1cccc(Nc2cccc(S(=O)(=O)NCCCN3CCCCC3)c2)c1 [Compound 9, 3-((3-(N-(3-(piperidin-1-yl)propyl)sulfamoyl)phenyl)amino)-N-(pyridin-4-yl)benzamide] | <10 | 5 | 50 | 0.28 | 36 | 44 | – | – | – | –
O=C(Nc1ccncc1)c1cccc(Nc2cccc(S(=O)(=O)NCCCN3CCOCC3)c2)c1 [Compound 12, 3-((3-(N-(3-morpholinopropyl)sulfamoyl)phenyl)amino)-N-(pyridin-4-yl)benzamide] | <10 | 11 | 55 | 0.46 | 54 | 60 | – | – | – | –
CCN(CC)CCCNC(=O)c1cccc(Nc2cccc(C(=O)Nc3ccncc3)c2)n1 [Compound 35, N-(3-(diethylamino)propyl)-6-((3-(pyridin-4-ylcarbamoyl)phenyl)amino)picolinamide] | <10 | 4 | 30 | 0.55 | 128 | 59 | – | – | – | –
CCN(CC)CCCNC(=O)c1cccc(Nc2cccc(C(=O)Nc3ccncn3)c2)n1 [Compound 40, N-(3-(diethylamino)propyl)-6-((3-(pyrimidin-4-ylcarbamoyl)phenyl)amino)picolinamide] | <10 | 26 | 59 | 0.75 | >100 | 73 | – | – | – | –
CCN(CC)CCCNC(=O)c1ccnc(Nc2cccc(C(=O)Nc3ccncn3)c2)c1 [Compound 41, N-(3-(diethylamino)propyl)-2-((3-(pyrimidin-4-ylcarbamoyl)phenyl)amino)isonicotinamide] | <10 | 8 | 53 | 1.5 | >100 | ≥80 | – | – | – | –
O=C(NCCCN1CCOCC1)c1cccc(Nc2cccc(/C=C/c3ccncc3)c2)c1 [Compound 583, reference compound] | <10 | 36 | 74 | 0.25 | 18 | 21 | – | – | – | –
O=C(NCCCN1CCCC1)c1cccc(Nc2cccc(/C=C/c3ccncc3)c2)c1 [Compound 585, reference compound] | <10 | 42 | 77 | 0.3 | 9 | 10 | – | – | – | –
CCN(CC)CCCNC(=O)c1cccc(Nc2cccc(/C=C/c3ccncc3)c2)c1 [Compound C88, reference compound] | <10 | 55 | 92 | 0.39 | 10 | 10 | 6.41 | anti-invasive activity is detected | anti-invasive activity was detected | 1
CCN(CC)CCCNC(=O)c1cccc(Nc2cccc(NC(=O)c3cccnc3)c2)c1 [FMMB46.1] | – | – | – | – | – | – | – | – | no effect was observed | 0.02
